Assay results from patent publication US12370212B2, “Intradialytic use of sodium thiosulfate” (Hope Medical Enterprises, Inc., priority 2017, dated 2025).
Like-named read-outs stand apart in the source and are kept apart here.

What was measured:
[1] = 60 mg sample, 2 mL of 0.1 N hydrochloric acid, 80° C., approximately 24 hours
Method: (§1) Concentration of thiosulfate in samples was assayed by ion chromatography. The ion chromatograph was equipped with an electrochemical conductivity detector and a Dionex IonPacAS12A analytical column. The sodium thiosulfate content in the samples tested was calculated against an external sodium thiosulfate standard. USP Sodium Thiosulfate Reference Standard (Item Number 1615107) was the testing standard (United States Pharmacopeia. Rockville, Maryland).

[2] = for Sulfate Concentration / Sulfide Concentration / Sulfite Concentration: degradation product, dialysate bicarbonate concentrate + sodium thiosulfate; for Measured Sodium Thiosulfate Concentration: dialysate bicarbonate concentrate, room temperature, expected 1.61 mg/mL
Method: as §1
Example 2 was performed to determine the stability of sodium thiosulfate in dialysate bicarbonate concentrate solution. At room temperature, 12500 mg sodium thiosulfate (50 mL of 250 mg/mL solution) was added to 7,700 mL of dialysate bicarbonate concentrate solution. The thiosulfate concentration of the dialysate bicarbonate concentrate solution was analyzed by ion chromatography 1) before addition of sodium thiosulfate; 2) 5 minutes after the addition of sodium thiosulfate; and 3) 2 hours after the addition of sodium thiosulfate.

[3] = mixed dialysate exiting hemodialysis machine; expected 0.0608 mg/L
Method: as §1
The machine was primed in bypass mode (dialysate and ultrafiltration rates set at zero) using normal saline.

[4] = for Thiosulfate Concentration After the Addition of Sodium Thiosulfate (Time = 60 Min): average of two samples
Method: as §1
Dialysate bicarbonate concentrate solution was prepared by adding 1 package of Centrisol© MB-330 Series Sodium Bicarbonate Concentrate powder (650 g) to 7.7 liters of purified water.
The hemodialysis machine mixed the bicarbonate concentrate solution and acid concentrate solution with the dilution ratio of 1 part of an acid concentrate solution, 1.72 parts of a bicarbonate concentrate solution, and 42.38 parts of purified water. The machine was primed in bypass mode (dialysate and ultrafiltration rates set at zero) using normal saline. After priming, the hemodialysis machine was run in “Therapy Mode” with the following settings: blood flow rate 300 mL/minute, dialysate flow rate 600 mL/minute, ultrafiltration rate 0 mL/minute.
An aqueous solution of sodium thiosulfate was prepared by dissolving 25 mg of sodium thiosulfate in 1 liter of purified water. […] This valve was placed in the dialysate tubing approximately eight inches upstream of the dialyzer (pre-filter). Two sampling ports were placed four inches upstream (pre-dialyzer sampling port) and ten inches downstream (post-dialyzer sampling port) from the dialyzer to collect samples of dialysate for […] assay by ion chromatography.
The infusion pump infused the sodium thiosulfate solution into the tubing through the valve at a rate of 250 mL/hour (4.16 mL/minute).
Normal saline flowed into the dialyzer at a rate of 300 mL/minute from the Arterial line and exited the dialyzer through the Venous line. Samples of saline were collected from the venous side of the dialyzer.

[5] = during the first hour of hemodialysis; cited from earlier work
[6] = material safety data sheet; cited from earlier work

O=S(O)(O)=S [Sodium Thiosulfate, sodium thiosulfate]
percentage of thiosulfate degradation [1]: 28.6%
Sulfate Concentration ([2]; after 5 minutes): 4.4 µg/mL
Sulfide Concentration ([2]; after 5 minutes): <2.5 µg/mL
Sulfite Concentration ([2]; after 5 minutes): 5.9 µg/mL
Sulfate Concentration ([2]; after 2 hours): 4.3 µg/mL
Sulfide Concentration ([2]; after 2 hours): <2.5 µg/mL
Sulfite Concentration ([2]; after 2 hours): 5.4 µg/mL
Measured Sodium Thiosulfate Concentration ([2]; after 5 minutes): 1.65 mg/mL
Measured Sodium Thiosulfate Concentration ([2]; after 2 hours): 1.65 mg/mL
stability in dialysate bicarbonate concentrate solution (in words) ([2]; over 2 hours): stable
Thiosulfate Concentration by Assay [3]: 0.001824
passage along or through dialyzer (in words) ([4]; added to unspiked dialysate between hemodialysis machine and dialyzer membrane): can either pass along or pass through a dialyzer
Thiosulfate Concentration After the Addition of Sodium Thiosulfate (Time = 60 Min) ([4]; dialysate after dialyzer): 2.20 µM
Thiosulfate Concentration After the Addition of Sodium Thiosulfate (Time = 60 Min) ([4]; dialysate before dialyzer): 4.04 µM
Thiosulfate Concentration After the Addition of Sodium Thiosulfate (Time = 60 Min) ([4]; saline solution after dialyzer (venous side)): 1.62 µM
decline of concentration of thiosulfate in the plasma [5]: over 60%
behaviour on contact with acid (in words) [6]: decomposes on contact with acid
